Data published in PMC11056982, “Paraptotic Cell Death as an Unprecedented Mode of Action Observed for New Bipyridine-Silver(I) Compounds Bearing Phosphane Coligands” (Journal of Medicinal Chemistry, 2024).
Marks after values point to notes of the source that are not given here.

Tests used:
SK-OV-3/CBP = assay: MTT viability assay in carboplatin-resistant SK-OV-3/CBP cells; assay type: cell-based, human; conditions: 72 h; for relative resistance (IC50 SK-OV-3/CBP divided by IC50 SK-OV-3): resistant subline vs parental line; for IC50: MTT, carboplatin-resistant subline, mean ± SD
Procedure: (§1) Cells were seeded (2 × 10^4 cells/well for HCT116, HCT116/OxR, 3 × 10^4 cells/well for HCT116 p53KO, 4 × 10^4 cells/well for MES-OV, SK-OV-3, and their respective CBP resistant counterparts) in 100 μL/well in 96-well plates and allowed to attach for 24 h at 37 °C and 5% CO2. Compounds were first dissolved in DMSO to a 10 mM stock solution and then further diluted in a growth medium (DMSO concentration <1%). After 24 h, cells were treated with 100 μL of different drugs dilutions in triplicates with the final concentrations of 0, 0.01, 0.05, 0.075, 0.1, 0.5, 0.75, 1, 2.5, 5, 7.5, and 10 μM depending on the compound and the cell line.

HCT116 WT/OxR = assay: MTT viability assay in oxaliplatin-resistant HCT116 WT/OxR cells; assay type: cell-based, human; conditions: 72 h; for relative resistance (IC50 HCT116 WT/OxR divided by IC50 HCT116 WT): resistant subline vs parental line; for IC50: MTT, oxaliplatin-resistant subline, mean ± SD
Procedure: as §1

MES-OV/CBP = assay: MTT viability assay in carboplatin-resistant MES-OV/CBP cells; assay type: cell-based, human; conditions: 72 h; for relative resistance (IC50 MES-OV/CBP divided by IC50 MES-OV): resistant subline vs parental line; for IC50: MTT, carboplatin-resistant subline, mean ± SD
Procedure: as §1

MES-OV = assay: MTT viability assay in MES-OV ovarian carcinoma cells; assay type: cell-based, human; conditions: for cancer cells killed at lowest tested concentration: MES-OV, 0.05 μM; for cancer cells killed at lowest tested concentration / IC50: 72 h; for IC50: MTT, mean ± SD
Procedure: as §1

recombinant rat TrxR = target: T1, recombinant rat TrxR (Rattus norvegicus, UniProt O89049); assay: Inhibition of mammalian TrxR (microplate reader-based DTNB assay); assay type: biochemical; conditions: cell-free assay
T1 construct: purchased Cayman Chemical
T1 sequence (O89049 1-499): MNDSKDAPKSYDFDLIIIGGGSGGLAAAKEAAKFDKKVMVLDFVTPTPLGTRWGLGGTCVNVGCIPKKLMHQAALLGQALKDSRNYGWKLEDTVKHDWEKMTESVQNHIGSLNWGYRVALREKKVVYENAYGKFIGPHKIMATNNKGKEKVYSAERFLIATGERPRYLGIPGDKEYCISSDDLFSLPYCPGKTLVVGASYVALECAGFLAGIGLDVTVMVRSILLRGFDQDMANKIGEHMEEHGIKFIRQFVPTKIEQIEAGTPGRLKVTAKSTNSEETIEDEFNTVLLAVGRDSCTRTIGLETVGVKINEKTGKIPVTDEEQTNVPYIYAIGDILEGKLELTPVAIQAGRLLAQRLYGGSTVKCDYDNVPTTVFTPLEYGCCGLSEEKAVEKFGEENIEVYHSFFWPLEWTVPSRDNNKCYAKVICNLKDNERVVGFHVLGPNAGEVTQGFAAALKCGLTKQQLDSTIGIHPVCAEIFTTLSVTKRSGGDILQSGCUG
Procedure: To determine the inhibition of mammalian TrxR, an established microplate reader-based assay was performed. For this purpose, commercially available recombinant rat TrxR (from Cayman Chemical) was used and diluted with distilled water to achieve a concentration of 0.12 U mL^–1. The compounds were freshly dissolved as stock solutions in DMSO. Aliquots (25 μL) of the enzyme solution and 25 μL of potassium phosphate buffer (pH 7.0) containing the compounds in graded concentrations (1% DMSO) were mixed. Positive controls were composed of 25 μL aliquots of the enzyme solution mixed with 25 μL 1% DMSO in buffer solution (no compounds). The final concentration of DMSO was 0.5% v/v in all samples. The blank solution was the highest used concentration of the compound in 0.5% DMSO in buffer solution (no enzyme). All resulting solutions were incubated with moderate shaking for 75 min at 37 °C in a 96-well plate. […] After proper mixing, the formation of 2-nitro-5-thiobenzoate (5-TNB) was monitored with a microplate reader at 405 nm 10 times in 35 s intervals for about 6 min. The increase in 5-TNB concentration over time followed a linear trend, and the enzymatic activities were calculated as the slopes (increase in absorbance per second) thereof. […] For the absorption measurements in the enzyme assay, a PerkinElmer 2030 Multilabel Reader VICTORTMX4 was used.

MES-OV cells [1] = assay: Mitochondrial membrane potential by JC-1 stain (flow cytometry); assay type: cell-based, human; conditions: 24 h
Procedure: Cells were seeded in a density of (2–4) × 10^5 cells/well in six-well plates and in 1 mL culture medium containing 10% FBS. After 24 h recovery, cells were treated with the indicated compounds and concentrations. Next, the supernatant was collected followed by trypsinization of the cells and centrifugation at 300g for 5 min. In the following protocols, cells were stained with annexin V (AV) and propidium iodide (PI) for cell death analysis, with only PI for cell cycle analysis, or with 10 μg mL^–1 JC-1 for evaluation of the mitochondrial membrane potential as previously described.[54],[55]

MES-OV cells [2] = assay: ROS detection by DCF-DA flow cytometry in MES-OV; assay type: cell-based, human; conditions: 24 h, 2.5 μM
Procedure: Cells were seeded 5 × 10^5 cells/mL in six-well plates. After 24 h treatment with the indicated concentration, cells were incubated with 10 μM 2′,7′-dichlorofluorescein diacetate (DCFH-DA, Sigma-Aldrich) in Hank’s balanced salt solution for 1 h at 37 °C. Subsequently, flow cytometry (with BD LSR Fortessa instrument, BD Biosciences, Franklin Lakes, NJ, USA) was performed to measure the median fluorescence signal of 20,000 single cells per sample. FlowJo (BD Biosciences, San Jose, CA, USA) and GraphPad Prism software (GraphPad Software Inc., San Diego, CA, USA) were to analyze the data.

[3] = Stability in PBS by LC-ESI(+)-HRMS/MS; assay type: physicochemical; conditions: 80 μM in PBS, monitored 48 h
Procedure: For the stability evaluation in PBS, 10 mM solutions of complexes 1, 4, and 7 were first prepared in DMSO. Two microliters of this solution were then added to PBS (250 μL) for a total concentration of 80 μM. Following centrifugation for 10 min at 3000 rpm, the resulting solutions were monitored by LC-ESI(+)-MS and LC-ESI(+)-HRMS for a period of 48 h.

MES-OV cells [4] = assay: TEM analysis of subcellular morphology; assay type: cell-based, human; conditions: 24 h treatment
Procedure: MES-OV Cells were seeded (8 × 10^5 cells/mL) in […] in six-well plates. After 24 h, cells were treated with the selected compounds at the indicated concentration for another 24 h. Afterward, cells were collected, pelleted, and fixed in a solution of 2.5% glutaraldehyde and 2% paraformaldehyde in 0.1 M cacodylate buffer (pH 7.4) for 2 h at room temperature. Samples were subsequently washed 3 × 10 min in cacodylate buffer and postfixed in 1% osmium tetroxide for 1 h. After 3 × 10 min washing in cacodylate buffer, samples were dehydrated in an ethanol series (30–100%, 10 min each) and pure acetone (2 × 10 min) and gradually embedded in Epon 812 resin (Serva). Sections (40–50 nm) were prepared with a Leica UC7 ultramicrotome, mounted on copper mesh grids, and contrasted with 1% uranyl acetate (7 min) and 3% lead citrate (3 min). Imaging was performed with a Tecnai G2 20 transmission electron microscope at 80 kV equipped with an FEI Eagle 4K CCD camera (Center for Anatomy and Cell Biology). Image processing was performed in Fiji[57] using the CLAHE filter (enhance local contrast).

MES-OV cells [5] = assay: Phase-contrast microscopy of cytoplasmic vacuoles; assay type: cell-based, human; conditions: 6 and 24 h treatment
Procedure: Cells were seeded 5 × 10^5/well in six-well plates after 24 h recovery treatment with compounds 1, 4, and 7 was performed with the indicated concentrations. After 6 and 24 h, phase-contrast images of the cells were taken with a Zeiss Primovert microscope (20× magnification). To determinate the percentage of vacuolated cells, images (three images each condition) were analyzed by ImageJ, and vacuolated cells were counted.

SK-OV-3 = assay: MTT viability assay in SK-OV-3 ovarian carcinoma cells; assay type: cell-based, human; conditions: 72 h, mean ± SD of three independent experiments
Procedure: as §1

HCT116 WT = assay: MTT viability assay in HCT116 WT colon carcinoma cells; assay type: cell-based, human; conditions: 72 h, mean ± SD
Procedure: as §1

HCT116 p53KO = assay: MTT viability assay in p53-deleted HCT116 p53KO cells; assay type: cell-based, human; conditions: 72 h, p53-deleted subclone, mean ± SD
Procedure: as §1

F331 = assay: MTT viability assay in nonmalignant fibroblasts F331; assay type: cell-based, human; conditions: 72 h, mean ± SD

Compound	relative resistance (IC50 SK-OV-3/CBP divided by IC50 SK-OV-3) (SK-OV-3/CBP)	relative resistance (IC50 HCT116 WT/OxR divided by IC50 HCT116 WT) (HCT116 WT/OxR)	IC50 (SK-OV-3)	IC50 (SK-OV-3/CBP)	IC50 (MES-OV)	IC50 (MES-OV/CBP)	IC50 (HCT116 WT)	IC50 (HCT116 WT/OxR)	IC50 (HCT116 p53KO)	IC50 (F331)	other results
Cc1ccnc(-c2cc(C)ccn2)c1.O=S(=O)([O-])C(F)(F)F.[Ag+].c1ccc(P(c2ccccc2)c2ccccc2)cc1 [Compound 2, [Ag(4,4′-CH3-2,2′-bipy)(PPh3)][CF3SO3]]	1.5^n.s.	0.9^n.s.	–	–	–	–	–	–	–	–	–
O=S(=O)([O-])C(F)(F)F.OCc1ccnc(-c2cc(CO)ccn2)c1.[Ag+].c1ccc(P(c2ccccc2)c2ccccc2)cc1 [Compound 3, [Ag(4,4′-CH2OH-2,2′-bipy)(PPh3)][CF3SO3]]	1.4^n.s.	0.7^n.s.	–	–	–	–	–	–	–	–	relative resistance (IC50 MES-OV/CBP divided by IC50 MES-OV) (MES-OV/CBP): 0.8^n.s.
O=S(=O)([O-])C(F)(F)F.[Ag+].c1ccc(-c2ccccn2)nc1.c1ccc(P(CCP(c2ccccc2)c2ccccc2)c2ccccc2)cc1 [Compound 4, [Ag(2,2′-bipy)(dppe)][CF3SO3]]	0.8^n.s.	0.9^n.s.	–	–	–	–	–	–	–	–	cancer cells killed at lowest tested concentration (MES-OV): more than 50%; TrxR inhibition strength relative to 7 (recombinant rat TrxR): 10 fold; cells with mitochondrial depolarization (low Δψ fraction) (MES-OV cells [1]; 10 μM): 50%; ROS levels increase (peak) (MES-OV cells [2]): ~5 fold; stability in PBS [3]: immediate rearrangement of the ligands to afford a mixture between AgP2 and AgN2 species; vacuole diameter (TEM) (MES-OV cells [4]): 300–1500 nm; cytoplasmic vacuole formation (phase contrast) (MES-OV cells [5]): induced pronounced cytoplasmic vacuoles only after 24 h incubation
N.N.O=C([O-])C1(C(=O)[O-])CCC1.[Pt+2] [carboplatin, reference compound]	1.6*	–	56500 ± 15400 nM	89900 ± 5640 nM	44300 ± 7090 nM	94700 ± 9240 nM	–	–	–	–	–
O=C1[O][Pt]2([NH][C@@H]3CCCC[C@H]3[NH]2)[O]C1=O [oxaliplatin, reference compound]	–	>14**	–	–	–	–	720 ± 180 nM	> 10000 nM	2370 ± 450 nM	–	–
[Ag(4,4′-CH2OH-2,2′-bipy)(dppe)][CF3SO3] [Compound 6]	0.8^n.s.	0.8^n.s.	6500 ± 1660 nM	5520 ± 2200 nM	< 50 nM	< 50 nM	640 ± 60 nM	540 ± 110 nM	490 ± 140 nM	> 10000 nM	cancer cells killed at lowest tested concentration (MES-OV): more than 50%
[Ag(4,4′-CH3-2,2′-bipy)(dppe)][CF3SO3] [Compound 5]	0.9^n.s.	1.0^n.s.	6860 ± 1550 nM	6500 ± 1290 nM	60 ± 30 nM	60 ± 30 nM	740 ± 60 nM	750 ± 80 nM	430 ± 50 nM	8520 ± 900 nM	relative resistance (IC50 MES-OV/CBP divided by IC50 MES-OV) (MES-OV/CBP): 1.0^n.s.
[Ag(dppe)2][CF3SO3] [Compound 7]	–	1.1^n.s.	–	5970 ± 1420 nM	< 50 nM	50 ± 20 nM	350 ± 40 nM	380 ± 50 nM	340 ± 10 nM	5780 ± 500 nM	activity relative to 4 after 24 h (MES-OV; 24 h MTT (Table S2)): about twofold more active than 4; cells with mitochondrial depolarization (low Δψ fraction) (MES-OV cells [1]; 1 μM): 30%; cells with mitochondrial depolarization (low Δψ fraction) (MES-OV cells [1]; 10 μM): 90%; ROS levels increase (peak) (MES-OV cells [2]): ~5 fold; stability in PBS [3]: stable under these conditions; diameter of big vacuoles (TEM) (MES-OV cells [4]): up to 7.5 μm; cytoplasmic vacuole formation (phase contrast) (MES-OV cells [5]): formation of cytoplasmic vacuoles near the nucleus within the cytoplasm was observed
